The text below walks through data of ChEMBL document CHEMBL1140762, “Acridones circumvent P-glycoprotein-associated multidrug resistance (MDR) in cancer cells” (Bioorg Med Chem, 2008).

Series [1] addresses T1, ATP-dependent translocase ABCB1 (Homo sapiens, UniProt P08183). The series is described as follows: Inhibition of P-glycoprotein in MDR human KBChR-8-5 cells assessed as retention of [3H]VLB after 2 hrs. Also noted: concentration or dose not given beside the values. It counts as cell-based.
A short description of series [2]: Lipophilicity, log P of the compound. As to conditions: octanol/water. It counts as physicochemical.
Series [3] has as its target T1, ATP-dependent translocase ABCB1. The series is described as follows: Inhibition of P-glycoprotein in MDR human KBChR-8-5 cells assessed as uptake of vinblastin relative to control. It counts as cell-based. Also noted: concentration or dose not given beside the values.
Series [4] can be described thus: Dissociation constant, pKa of the compound. It counts as physicochemical.
A further series has as its system KB-Vi. The series is described as follows: Displacement of [3H]azidopine from human P-glycoprotein in KB-Vi cells. Also on record: concentration or dose not given beside the values. It counts as cell-based.
For another series, the system named is MDR. The series is described as follows: Cytotoxicity against MDR human KBChR cells. It counts as functional, cell-based.

Each structure is given as a SMILES string.

T1 sequence (P08183 whole entry): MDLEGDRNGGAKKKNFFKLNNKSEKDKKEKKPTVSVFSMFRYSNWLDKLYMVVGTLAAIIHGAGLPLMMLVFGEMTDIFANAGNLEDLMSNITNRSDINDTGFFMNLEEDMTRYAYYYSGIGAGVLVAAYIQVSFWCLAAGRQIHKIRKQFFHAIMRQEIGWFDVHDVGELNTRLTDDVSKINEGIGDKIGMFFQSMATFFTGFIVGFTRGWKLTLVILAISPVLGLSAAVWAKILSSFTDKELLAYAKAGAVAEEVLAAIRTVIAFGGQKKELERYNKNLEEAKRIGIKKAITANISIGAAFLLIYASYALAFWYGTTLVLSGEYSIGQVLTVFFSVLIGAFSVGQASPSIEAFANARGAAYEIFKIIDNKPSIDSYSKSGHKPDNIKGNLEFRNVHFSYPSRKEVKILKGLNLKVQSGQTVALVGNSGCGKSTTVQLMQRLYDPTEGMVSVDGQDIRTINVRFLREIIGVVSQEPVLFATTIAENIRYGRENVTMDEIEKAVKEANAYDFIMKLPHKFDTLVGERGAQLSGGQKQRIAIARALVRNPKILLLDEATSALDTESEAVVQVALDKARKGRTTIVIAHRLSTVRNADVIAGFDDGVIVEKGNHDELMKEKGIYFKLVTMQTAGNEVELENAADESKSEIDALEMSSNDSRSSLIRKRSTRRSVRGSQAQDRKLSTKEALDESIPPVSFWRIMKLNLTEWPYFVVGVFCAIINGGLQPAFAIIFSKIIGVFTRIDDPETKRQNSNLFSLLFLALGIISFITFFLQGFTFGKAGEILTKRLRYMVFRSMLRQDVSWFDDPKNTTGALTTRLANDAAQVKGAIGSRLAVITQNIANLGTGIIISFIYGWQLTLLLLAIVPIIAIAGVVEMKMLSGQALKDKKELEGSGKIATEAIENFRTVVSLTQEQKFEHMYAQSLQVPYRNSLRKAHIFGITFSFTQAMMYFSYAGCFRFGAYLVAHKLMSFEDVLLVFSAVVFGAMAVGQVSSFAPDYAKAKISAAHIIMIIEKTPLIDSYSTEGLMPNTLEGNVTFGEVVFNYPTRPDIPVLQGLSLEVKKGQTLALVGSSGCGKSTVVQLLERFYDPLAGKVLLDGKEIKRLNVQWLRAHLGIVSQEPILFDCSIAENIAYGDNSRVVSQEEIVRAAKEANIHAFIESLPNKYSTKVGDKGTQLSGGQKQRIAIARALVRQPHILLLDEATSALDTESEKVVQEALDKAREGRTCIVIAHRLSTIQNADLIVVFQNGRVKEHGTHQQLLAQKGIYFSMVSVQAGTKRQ

On to `O=c1c2ccccc2n(CCCN2CCCC2)c2ccc(Cl)cc12`, for which the values for the Activity (in series [1]; in series [3]; in the series on KB-Vi) were 56%, 988% and 50%, respectively. In addition, the logP (commonly a log measure of how a compound divides between an organic and an aqueous phase) in series [2] amounted to 1.55. In series [4], the pKa (usually the negative logarithm of the acid dissociation constant) came to 5.21. In addition, the 10% effect concentration (IC10) – broadly, the concentration needed for an effect of 10% – in the series with MDR came out at 0.9 µM. In addition, inhibition in the series on MDR was half-maximal at 14 µM (IC50).
Consider `O=c1c2ccccc2n(CCCCN2CCCC2)c2ccc(Cl)cc12`, for which the results for the Activity (in series [1]; in series [3]; with KB-Vi) were 79%, 1010% and 30%, respectively. The compound also gave a logP in series [2] of 1.74. Besides, the pKa in series [4] was 5.28. In addition, it took 1.85 µM to reach the 10% level in the series on MDR (IC10). Besides, the IC50 (in general, the concentration at which inhibition is half-maximal) in the series on MDR turned out to be 12.5 µM.
Regarding `CN1CCN(CCCn2c3ccccc3c(=O)c3cc(Cl)ccc32)CC1`, the Activity in series [1] is 51%; in series [3], 1010%; in the series on KB-Vi, 45%. For the same compound, the logP in series [2] came to 1.48. For the same compound, the pKa in series [4] was determined as 5.28. For the same compound, in the series on MDR, the IC10 turned out to be 0.8 µM. This compound displayed an IC50 in the series with MDR of 9 µM.
Take `O=c1c2ccccc2n(CCCN2CCN(CCO)CC2)c2ccc(Cl)cc12`: the Activity was determined as 56.5% in series [1], 1252% in series [3] and 35% with KB-Vi. Also, the log partition coefficient (logP) in series [2] is 1.76. The compound further displayed a pKa in series [4] of 5.26. Moreover, in the series with MDR, the concentration for an effect of 10% (IC10) amounted to 0.74 µM. Moreover, in the series with MDR, the IC50 is 7.5 µM.
`O=c1c2ccccc2n(CCCCN2CCCCC2)c2ccc(Cl)cc12`: the values for the Activity (in series [1]; in series [3]; in the series on KB-Vi) were 77%, 1855% and 15%, respectively. Moreover, the logP in series [2] is 2.01. The compound also yielded a pKa in series [4] of 5.36. The compound also registered an IC10 with MDR of 0.6 µM. Half-maximal inhibition in the series with MDR (IC50) was put at 5.2 µM.
Consider `O=c1c2ccccc2n(CCCCN2CCN(CCO)CC2)c2ccc(Cl)cc12`, for which the Activity in series [1] was determined as 80.5%; in series [3] it was 2010%; in the series with KB-Vi, 10%. In series [2], this compound showed a logP of 2.25. This compound had a pKa in series [4] of 5.26. For the same compound, the 10% effect level with MDR (IC10) was put at 0.46 µM. For the same compound, the half-maximal inhibitory concentration (IC50) with MDR is 4.5 µM.
`O=c1c2ccccc2n(CCCCl)c2ccc(Cl)cc12`: the Activity was 40% in series [1], 880% in series [3] and 83% with KB-Vi. Besides, in series [2], the logP was found to be 1.38. The compound also yielded a pKa in series [4] of 8.65. Besides, the 10% effect level with MDR (IC10) was put at 1.35 µM. Moreover, in the series on MDR, 15 µM corresponded to half-maximal inhibition (IC50).
Consider `O=c1c2ccccc2n(CCCN2CCOCC2)c2ccc(Cl)cc12`, for which the Activity in series [1] came out at 62%; in series [3], 1372%; with KB-Vi it was 30%. Besides, in series [2], the logP was found to be 1.64. Also, the pKa in series [4] came to 4.87. For the same compound, it took 1.15 µM to reach the 10% level in the series with MDR (IC10). Also, the IC50 with MDR stood at 10.5 µM.
Take `CCN(CC)CCCn1c2ccccc2c(=O)c2cc(Cl)ccc21`: the results for the Activity (in series [1]; in series [3]; with KB-Vi) were 47%, 948% and 80%, respectively. The logP in series [2] was 1.54. This compound came in with a pKa in series [4] of 5.37. In the series with MDR, this compound had an IC10 of 1 µM. In addition, the half-maximal inhibitory concentration (IC50) with MDR worked out at 12.5 µM.
Regarding `O=c1c2ccccc2n(CCCCCl)c2ccc(Cl)cc12`, the results for the Activity (in series [1]; in series [3]; in the series on KB-Vi) were 60.5%, 982% and 70%, respectively. The compound further gave a log partition coefficient (logP) in series [2] of 1.68. In series [4], this compound registered a pKa of 8.85. This compound yielded a concentration for an effect of 10% (IC10) in the series with MDR of 1.25 µM. Besides, the IC50 in the series with MDR was found to be 10.8 µM.
Consider `O=c1c2ccccc2n(CCCN2CCCCC2)c2ccc(Cl)cc12`, for which the values for the Activity (in series [1]; in series [3]; with KB-Vi) were 54.5%, 927% and 50%, respectively. In addition, the logP in series [2] came to 1.52. The same compound showed a pKa in series [4] of 5.39. This compound came in with a 10% effect concentration (IC10) in the series with MDR of 1.25 µM. This compound gave an IC50 with MDR of 15.5 µM.
In the case of `O=c1c2ccccc2n(CCCCN2CCOCC2)c2ccc(Cl)cc12`, the Activity in series [1] turned out to be 76%; in series [3], 1690%; in the series with KB-Vi, 15%. The same compound had a logP in series [2] of 1.89. This compound also registered a pKa in series [4] of 4.91. Besides, the 10% effect concentration (IC10) with MDR was 0.72 µM. This compound came in with a concentration for half-maximal inhibition (IC50) in the series on MDR of 6 µM.
For the compound `O=c1c2ccccc2n(CCCCN(CCO)CCO)c2ccc(Cl)cc12`, the Activity was determined as 74% in series [1], 1219% in series [3] and 20% with KB-Vi. Further, in series [2], the lipophilicity (logP) was 1.67. This compound showed a pKa in series [4] of 4.8. Moreover, the 10% effect level in the series on MDR (IC10) was put at 0.6 µM. For the same compound, the IC50 with MDR came out at 5 µM.
Take `O=c1c2ccccc2[nH]c2ccc(Cl)cc12`: the Activity in series [1] came out at 49%; in series [3], 715%; with KB-Vi it was 85%. The logP in series [2] was 2.06. In series [4], this compound showed a pKa of 8.29. Besides, in the series with MDR, it took 1.41 µM to reach the 10% level (IC10). In the series on MDR, half-maximal inhibition (IC50) was put at 18 µM.
With `CCN(CC)CCCCn1c2ccccc2c(=O)c2cc(Cl)ccc21`, the Activity in series [1] worked out at 77.2%; in series [3], 1356%; in the series with KB-Vi it was 20%. The logP in series [2] amounted to 1.9. Moreover, in series [4], the pKa was 5.45. In the series on MDR, this compound yielded an IC10 of 0.62 µM. Further, the IC50 in the series with MDR is 9.1 µM.
Take `O=c1c2ccccc2n(CCCN(CCO)CCO)c2ccc(Cl)cc12`: the Activity in series [1] was determined as 66%; in series [3] it was 1017%; with KB-Vi it was 40%. Besides, the logP in series [2] worked out at 1.47. The compound further returned a pKa in series [4] of 4.8. The concentration for an effect of 10% (IC10) with MDR was 1.2 µM. The compound further came in with a concentration for half-maximal inhibition (IC50) with MDR of 8.7 µM.
In the case of `CN1CCN(CCCCn2c3ccccc3c(=O)c3cc(Cl)ccc32)CC1`, the Activity in series [1] worked out at 75%; in series [3], 1420%; with KB-Vi it was 20%. Moreover, the log partition coefficient (logP) in series [2] was found to be 1.95. The compound also gave a pKa in series [4] of 5.61. The compound also showed an IC10 with MDR of 0.8 µM. Also, 8 µM corresponded to half-maximal inhibition in the series on MDR (IC50).
